Test results taken from patent publication US20040049353A1, “System and method for monitoring water using bivalve mollusks” (priority 2003, published 2004).

Test system: mollusks
Test: Exposure of mollusks in the water-monitoring system to toxicant-loaded water; shell gape and Degree of Alarm (DOA)
Format: in vivo
Description: Further calibration of the system is performed after one or more mollusk chambers are properly installed. The digital circuitry or computer 39 then monitors the gape of the mollusk during approximately the first three days after installation. From the gape values derived during this period, the computer derives a natural maximum gape value for the individual mollusk. Subsequent calculations based on output from the mollusk chamber 15 are based on the percentage of gape, i.e., the percentage of the maximum gape output value that the presently detected gape output value represents.
When the system 3 contains a number of mollusk chambers 15, the individual mollusk percentage gape data for all of the mollusks of the system is totaled, and the average percentage gape value calculated periodically per sampling interval by computer 38. This mean data value Gi is the variable used as the mollusk output data for determining if toxicants are present in the water being screened.
In the present specification, Gi means the current average mollusk gape data, Gi−1 means the most recent earlier mollusk output value, Gi−2 the next earlier mollusk output variable, etc. The oldest of the gape values is Gi−n+1. Preferably, the set of data values Gi−n+1 to Gi are stored in a FIFO (first-in, first-out) stack data structure in the computer doing the analysis. The stack acts as a shift register, shifting earlier data values as the new data value Gi is acquired. Preferably the value of n is 30, and the data values G are acquired every half-second.
A variable referred to as Degree of Alarm (“DOA”) is derived from the mean mollusk output data using one of a variety of analysis formulae or methods, ranging from simpler models to more complex systems based on neural net technology that can identify the particular toxicant types that are present in the water and causing a reaction by the mollusks.
According to an aspect of the invention, the variance over time of the gape values is one of the best statistical indicators of the pumping of the mollusk. By the term variance, what is meant is a determination of the variability of the gape values from a mean value, which may be determined or expressed using a variety of functions. Particularly preferred, however, is the classical calculation of variance as: [formula]
wherein V is the mean variance in gape over a recent period of time, preferably 30 seconds, R is the mean regression of the gape over the period (regression herein meaning the slope of the best-fit line through the data values of the time period). M may be the traveling mean as defined above, or may be the mean gape taken over another longer period, preferably about one hour.
An implementation of this method is shown by the graphs of FIGS. 7 to 10. Water being screened by a system as described previously was loaded with sulphuric acid, resulting in a drop in pH as shown in the graph of FIG. 7.
An implementation of such a DOA method using a Logistic calculation, with a variance factor added for variances over 50, is illustrated by the graphs of FIGS. 12 to 16.
In this example, a system as in Example 3 was used, only the toxicant introduced was copper (as aqueous CuSO4), as shown in FIG. 17.

[Cl-].[Na+] [chloride, NaCl]
DOA output (Logistic calculation with variance factor for variances over 50, at 0.5 hours, chloride concentration still relatively low): greater than 5
raw gape data, decreasing gape over time (gradually increasing concentration of chloride (as aqueous NaCl)): less than 40 % of normal maximum gape

O=S(=O)([O-])[O-].[Cu+2] [copper, CuSO4]
DOA values (Logistic calculation with variance factor, out of a possible 10, between 0.5 and 1.0 hours, copper concentration still relatively low): exceed 8
gape when DOA exceeded 8 (copper (as aqueous CuSO4), between 0.5 and 1.0 hours): 50%

O=S(=O)(O)O [sulphuric acid]
DOA values (spike) (DOA=(V·|R|)/M, water loaded with sulphuric acid, before 200 minutes): greater than 100
average percentage gape of the mollusks (water loaded with sulphuric acid (drop in pH), shortly after 200 minutes): less than 10 % of the normal maximum
percentage gape when variance spikes (water loaded with sulphuric acid, variance over ten most recent values spikes shortly before 200 minutes): 40%
